Reference: patent US11504342B2, “Transmucosal film composition and methods of making and using the same” (Avior, Inc., priority 2018, dated 2022)

Assay: Solubility evaluation in combinations of solvent systems
Format: physicochemical
Experimental: In addition, the solubility of nalmefene in varying concentrations was evaluated using different combinations of solvent systems. The solvent systems included combinations of polar solvents with different surface active agents. Exemplary surface active agents included: Tween 20, Tween 80, […]® 34/44, KOLLIPHOR® HS 15, SOLUTOL® NF, LABRAFIL® M2125 CS and LABRAFIL® M1944 CS.

Measured: Observation (solubility)

C=C1CC[C@@]2(O)[C@H]3Cc4ccc(O)c5c4[C@@]2(CCN3CC2CC2)[C@H]1O5 [nalmefene]
Completely Soluble,: ID 1, Ethanol:Water 75:25, nalmefene 200 mg/mL | ID 2 (second), Ethanol:Water:Propylene Glycol 82.5:12.5:5, nalmefene 200 mg/mL | ID 2, Ethanol:Water:Tween 20 75:24.5:0.5, nalmefene 250 mg/mL | ID 3, Ethanol:Water:Propylene Glycol 68:22:10, nalmefene 350 mg/mL | ID 5, Ethanol:Water:Propylene Glycol:Tween 80 70:25:4:1, nalmefene 350 mg/mL | ID 6, Ethanol:Water:Glycerine 70:20:10, nalmefene 300 mg/mL | ID 7, Ethanol:Water:Gelucire 34/14 75:20:5, nalmefene 200 mg/mL | ID 8, Ethanol:Water:Labrafil M2125 CS 80:17.5:2.5, nalmefene 200 mg/mL | ID 9, Ethanol:Water:Labrafil M1944 CS 80:17.5:2.5, nalmefene 200 mg/mL
